Columns and labels:
Caspase-9 = target: T1, Caspase-9 (Homo sapiens, UniProt P55211); conditions: active form of Belnacasan; cited from earlier work
T1 sequence (P55211 1-315 limits assumed): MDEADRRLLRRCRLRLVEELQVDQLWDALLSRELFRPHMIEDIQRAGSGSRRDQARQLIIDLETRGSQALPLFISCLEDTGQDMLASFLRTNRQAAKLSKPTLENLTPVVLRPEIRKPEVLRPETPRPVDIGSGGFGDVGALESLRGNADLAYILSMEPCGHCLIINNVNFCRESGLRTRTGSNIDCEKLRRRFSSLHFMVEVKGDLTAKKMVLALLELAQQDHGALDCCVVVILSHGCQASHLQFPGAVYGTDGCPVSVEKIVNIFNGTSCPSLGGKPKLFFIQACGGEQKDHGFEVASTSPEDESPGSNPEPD
T1 sequence (P55211 331-416 limits assumed): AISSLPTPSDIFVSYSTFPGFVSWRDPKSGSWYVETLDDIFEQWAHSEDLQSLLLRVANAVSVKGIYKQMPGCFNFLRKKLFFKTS

Caspase-4 = target: T2, Caspase-4 (Homo sapiens, UniProt P49662); conditions: active form of Belnacasan; cited from earlier work
T2 sequence (P49662 81-270 limits assumed): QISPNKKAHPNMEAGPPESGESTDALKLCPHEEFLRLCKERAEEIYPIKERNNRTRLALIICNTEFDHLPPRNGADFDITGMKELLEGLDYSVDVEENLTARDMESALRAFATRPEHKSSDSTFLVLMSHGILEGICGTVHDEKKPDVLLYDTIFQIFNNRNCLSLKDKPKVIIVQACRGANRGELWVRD
T2 sequence (P49662 290-377 limits assumed): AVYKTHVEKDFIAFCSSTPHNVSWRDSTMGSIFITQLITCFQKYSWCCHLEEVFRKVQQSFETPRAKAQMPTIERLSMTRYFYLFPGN

Caspase-7 = target: T3, Caspase-7 (Homo sapiens, UniProt P55210); conditions: active form of Belnacasan; cited from earlier work
T3 sequence (P55210 24-198 limits assumed): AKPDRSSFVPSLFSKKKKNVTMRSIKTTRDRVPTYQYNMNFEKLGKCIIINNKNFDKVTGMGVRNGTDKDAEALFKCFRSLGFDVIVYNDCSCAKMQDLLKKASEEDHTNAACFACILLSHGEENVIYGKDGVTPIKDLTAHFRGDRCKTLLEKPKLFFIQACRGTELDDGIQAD
T3 sequence (P55210 207-303 limits assumed): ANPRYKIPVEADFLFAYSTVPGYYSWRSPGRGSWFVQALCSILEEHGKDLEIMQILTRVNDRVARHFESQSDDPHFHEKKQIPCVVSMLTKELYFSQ

Caspase-3 = target: T4, Caspase-3 (Homo sapiens, UniProt P42574); conditions: active form of Belnacasan; cited from earlier work
T4 sequence (P42574 29-175 limits assumed): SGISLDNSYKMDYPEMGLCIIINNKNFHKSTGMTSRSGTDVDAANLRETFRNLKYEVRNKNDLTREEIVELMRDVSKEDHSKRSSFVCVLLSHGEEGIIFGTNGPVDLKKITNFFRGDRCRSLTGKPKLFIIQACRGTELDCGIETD
T4 sequence (P42574 176-277 limits assumed): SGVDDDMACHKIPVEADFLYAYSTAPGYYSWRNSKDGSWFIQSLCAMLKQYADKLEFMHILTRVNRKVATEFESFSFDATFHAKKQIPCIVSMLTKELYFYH

[1] = osteoarthritis, epilepsy, myocardial infarction (in combination with a platelet inhibitor); cited from earlier work
[2] = system: inflammasome-mediated release of IL1beta; assay: Nigericin-induced IL-1β release in PMA-differentiated, LPS-stimulated THP-1 cells (ELISA); type: cell-based, human; conditions: PMA 50 nM 24 h, LPS 1 μg/mL 6 h
Description: THP-1 cells come from a child with leukemia. It is a pre-monocytic line, characterized by a suspension of (non-adherent) cells with a well rounded shape. The cells used come from ATCC. The cells are cultured at a density of 0.4.106 /mL in T75 flasks kept upright in RPMI 1640 Medium, Glutamax, Supplement HEPES (ThermoFischer Scientific, #72400027) supplemented with 10% FCS (previously decomplemented and flitre) and 1% PS antibiotics. The cultures are maintained at 37° C. under a humid atmosphere with 5% CO2.
The differentiation of THP-1 is induced by adding phorbol 12-myritate 13-acetate (PMA, 5 mg/mL stock in DMSO, InvivoGen, # tlrl-pma) to the medium. More precisely, the latter mimics the structure of diacylglycerol (DAG) which is an activator of protein Kinase C (PKC). Thus, it allows the stimulation of the expression of transcription factors including NF-kB, which are involved in macrophage differentiation (Park E. K. et al., 2007; Daigneault M. et al., 2010). After treatment with PMA the cells acquire a macrophages-like phenotype, that is, they become adherent and no longer divide. In practice, the cells are seeded on 24-well plates at a density of 300.103 cells/well, the PMA is then added for 24 hours at a concentration of 50 nM. The next day, the cells are washed gently with PBS and fresh complete medium is added, the cells are then left for 3 days. […]

[3] = cited from earlier work
interleukin-1β release = conditions: after LPS treatment; cited from earlier work

Row | Structure (SMILES) | Ki (Caspase-9) [µM] | Ki (Caspase-4) [µM] | Ki (Caspase-7) [µM] | Ki (Caspase-3) [µM] | efficacy in animal models [1] | reduction of the release of the cytokine IL-1β into the medium ([2]; 25 μM, after 120 minutes of Nigericin treatment) [%] | release of IL-1beta induced by nigericin ([2]; Nigericin 5 μM for 60 and 120 minutes, n=3) | tolerability in humans ([3]; oral) | decrease in the frequency of epileptic episodes (secondary endpoint) ([3]; phase 2b, 60 patients with epilepsy (48 VX-765), no statistical superiority vs placebo) [%] | primary endpoint of safety and tolerance ([3]; phase 2b, 60 patients with epilepsy) | efficacy in cellular models of interleukin-1β release (interleukin-1β release)
1 | CC(C)(C)[C@H](NC(=O)c1ccc(N)c(Cl)c1)C(=O)N1CCC[C@H]1C(=O)N[C@H](C=O)CC(=O)O [VRT-043198] | 1 | < 0.0006 | 21.5 | 16 |  |  |  |  |  |  | 
2 | CCO[C@@H]1OC(=O)C[C@@H]1NC(=O)[C@@H]1CCCN1C(=O)[C@@H](NC(=O)c1ccc(N)c(Cl)c1)C(C)(C)C [Belnacasan, (S)-1-((S)-2-(4-Amino-3-chlorobenzamido)-3,3-dimethylbutanoyl)-N-((2R,3S)-2-ethoxy-5-oxotetrahydrofuran-3-yl)pyrrolidine-2-carboxamide] |  |  |  |  | significant efficacy | 90 | prevents the release | well tolerated | 15.6 | reached | effective

From patent publication US20230372292A1 (priority 2020, published 2023)
